According to PubChem BioAssay AID1259407 (Chemical Carcinogenesis Research Information System (CCRIS), 2018):
The source made the active and inactive calls. The rule behind the calls is not given here.

System: CCRIS mutagenicity, Ames/micronucleus/aberration tests
Test: CCRIS mutagenicity studies
Details: Test System: AMES SALMONELLA TYPHIMURIUM, Method: SUSPENSION/PLATE

Measured: mutagenic call

Cc1ccc([N+](=O)[O-])cc1NO
inactive: Strain/Indicator: TA98, Metabolic Activation: NONE inactive; negative | Strain/Indicator: TA98, Metabolic Activation: RAT, LIVER, S-9, PHENOBARBITAL AND 5,6-BENZOFLAVONE inactive; negative | Strain/Indicator: TA100, Metabolic Activation: NONE inactive; negative | Strain/Indicator: TA100, Metabolic Activation: RAT, LIVER, S-9, PHENOBARBITAL AND 5,6-BENZOFLAVONE inactive; negative
